Where “and” joins values, the source holds several entries; their conditions need not be identical. Equal entries are not always repeated.

For assay [1], the system named is HT29 tumor. Nature of the assay: SC HT29 colorectal tumor xenograft. Type of assay: in vivo, athymic NCr-nu/nu mice. As to conditions: LT1009 50 mg/kg ip q2d; Avastin 20 mg/kg iv q4d; 5-FU 75 mg/kg ip q4d. As for the experimental part:
Nude mice were implanted sc near the right flank with one fragment per mouse of HT29 tumor from an in vivo passage. All treatments were initiated the day when 60 mice in each experiment established tumors ranging in size from approximately 100 to 200 mm^3. There were ten mice per treatment group. […] 75 mg/kg 5-FU and 20 mg/kg Avastin were administered ip and iv at a dosage of 75 mg/kg/dose and 20 mg/kg/dose, respectively, q4d, injected in a volume of 0.1 mL/10 g body weight.
(§1) Animals were observed daily for mortality. Tumor dimensions and body weights were collected twice weekly starting with the first day of treatment and including the day of study termination. When the median tumor in the vehicle-treated control group in each study reached approximately 4,000 mg, the study was terminated. Tumors from each animal were harvested, wet weights were recorded, and tumors were processed for determination of MVD by CD-31 staining. Tumor weights (mg) were calculated using the equation for an ellipsoid sphere (l×w^2)/2=mm^3, where l and w refer to the larger and smaller dimensions collected at each measurement and assuming unit density (1 mm^3=1 mg).

Assay [2] relates to experimental autoimmune encephalomyelitis. As to conditions: 0.1 mg/kg p.o. or higher doses; cited from earlier work.
The subject of assay [3] is peripheral lymphocytes. As to conditions: single oral dose; cited from earlier work.
Assay [4] relates to RPMI 8226 tumor. Nature of the assay: RPMI 8226 human myeloma tumor xenograft. Type of assay: in vivo, CB17 SCID mice. Particulars: LT1009 50 mg/kg IP Q3D to end; Bortezomib iv Q3D×6. How it is done:
Nude mice (CB17 SCID, aged 4-5 weeks, weight 18-22 gm, female mice obtained from Harlan) were injected sc with RPMI 8226 cells harvested from tissue culture (˜1×10^7 cells/mouse). When tumors grew to approximately 100 mm^3 in size, animals were pair-matched by tumor size into treatment and control groups (10 mice per group). Initial dosing began Day 1 following pair-matching. Animals in all groups were dosed by weight (0.01 ml per gram; 10 ml/kg). […] Bortezomib was administered by intravenous injection via tail vein once every three days for six treatments (Q3D×6).
Individual and group mean tumor volumes±SEM are recorded twice weekly until study completion beginning Day 1. Final mean tumor volume±SEM for each group are reported at study completion; animals experiencing partial or complete tumor regressions or animals experiencing technical or drug-related deaths are censored from these calculations.

In assay [5] the test system is DU145 tumor. Nature of the assay: SC DU145 prostate tumor xenograft. Format: in vivo, nude NCr (nu/nu) mice. Particulars: LT1009 50 mg/kg ip q2d; Avastin 20 mg/kg q4d; Paclitaxel 7.5 mg/kg q1d×5. How it is done: Nude mice were implanted sc near the right flank with one fragment per mouse of DU145 tumor from an in vivo passage. All treatments were initiated the day when 60 mice in each experiment established tumors ranging in size from approximately 100 to 200 mm^3. […] Paclitaxel and Avastin were administered iv and ip at a dosage of 7.5 mg/kg/dose and 20 mg/kg/dose, q1d×5 and q4d, respectively, injected in a volume of 0.1 mL/10 g body weight.
During the course of the study tumor growth was monitored by measuring the sc tumors on three axes and calculating the volume. At the end of the study final tumor weights and volumes were determined and then the mice were sacrificed, the tumors harvested. Microvascular densities (MVD) of the tumors were then determined by CD-31 staining.

The test system of assay [6] is COLO205 tumor. Nature of the assay: SC COLO205 colorectal tumor xenograft. Particulars: LT1009 50 mg/kg ip q3d; Avastin 40 mg/kg iv q7d; Paclitaxel 15 mg/kg iv q1d×5. Type of assay: in vivo, nude NCr (nu/nu) mice. How it is done:
Nude mice were implanted sc near the right flank with one fragment per mouse of COLO 205 tumor from an in vivo passage. All treatments were initiated the day when 60 mice in each experiment established tumors ranging in size from approximately 100 to 200 mm3. […] Avastin was administered iv at a dosage of 40 mg/kg/dose on a q7d schedule, injected in a volume of 0.1 mL/20 g body weight. Paclitaxel (positive control), was administered iv at a dosage of 15 mg/kg/dose on a q1d×5 schedule, injected in a volume of 0.1 mL/10 g body weight.
as §1, with “recorded,” for “recorded, and”, “microvascular densities (MVD)” for “MVD”

The test system of assay [7] is human retinal pigmented epithelial cells. Nature of the assay: alpha-SMA expression (myofibroblast transformation) in retinal pigmented epithelial cells. Format: cell-based. From the text:
(§2) In many of these disorders, circulating growth factors and chemokines promote the transformation of normal ocular cells into fibrocontractile, scar tissue-producing cells that have been termed “myofibroblasts”. Normally, myofibroblasts are responsible for tissue repair as part of the wound healing response following injury. However altered number and function of myofibroblasts are implicated in diseases characterized by pathological scar tissue formation in the liver, skin, lung, kidney, heart and eyes. In the eye, transformation of retinal pigmented epithelial (RPE) cells to a myofibroblast phenotype is linked to formation of fibro-contractile membranes which cause retinal detachment and subsequent vision impairment. In addition, myofibroblast transformation of ocular fibroblasts can result in abnormal scar tissue production after eye injury leading to subsequent vision loss. Although many of the circulating protein factors in the eye that promote myofibroblast formation have been identified, nothing is known regarding the role of lysolipids such as S1P in this process. Therefore, we examined the effects of S1P on myofibroblast transformation of several human ocular cell lines.
In these experiments, the ability of S1P to promote α-SMA expression differed in a concentration dependent manner between the retinal pigmented epithelial cells and conjunctiva fibroblasts. […]

The test system of assay [8] is Matrigel plug neovascularization. Nature of the assay: In vivo Matrigel plug assay for neovascularization (S1P, VEGF, bFGF). Details: species or system mice. Particulars: Matrigel with 1 μM S1P. How it is done: Based on in vivo studies showing that S1P increased endothelial capillary growth into subcutaneously implanted Matrigel plugs, we speculated that SPHINGOMAB could reduce de novo BV formation in vivo. To investigate this, we employed the in vivo Matrigel Plug assay for neovascularization. In one set of experiments, Matrigel was supplemented with either 1 μM S1P, 0.5 μg/mL bFGF or 1 μg/mL VEGF and then […]. into mice (n=4). After 10 days, the mice were heparinized and injected with the fluorescent lectin, Isolectin B4-FITC, which binds to adhesion molecules expressed by vascular EC that form the growing BVs. The plugs were then excised, frozen in OCT, sectioned and viewed for FITC-stained BVs.
Sections of the plugs were then stained with hemotoxyln & eosin for evaluation of EC infiltration (FIG. 6B). The infiltration of ECs is a critical step in neo-vascularization. […] Cell infiltration is presumed to be ECs although we recognize that other cell types such as immune cells may also be stained.
Endogenous S1P from the blood and surrounding tissue could supply a wound with pro-angiogenic stimuli. The ability of SPHINGOMAB to reduce endogenous S1P in a wound was investigated. Optimally stimulated plugs (Matrigel supplemented with 0.5 μg/mL bFGF or […] VEGF) were implanted into mice. Mice received i.p. injections of 25 mg/kg SPHINGOMAB or saline every 48 hrs starting 1 day prior to Matrigel implantation. Each treatment group (Matrigel, Matrigel plus GF or Matrigel plus GF and administered SPHINGOMAB) consisted of a minimum of 6 mice. After 10 days, the mice were treated with heparin, injected with Isolectin B4-FITC, the plugs excised, embedded in OCT freezing medium and sectioned.

The subject of assay [9] is human conjunctiva fibroblasts. Nature of the assay: alpha-SMA and PAI-1 expression in conjunctiva fibroblasts. Format: cell-based.
Description: as §2
In these experiments, the ability of S1P to promote α-SMA expression differed in a concentration dependent manner between the retinal pigmented epithelial cells and conjunctiva fibroblasts. […] This difference is believed to result from increased S1P receptor expression in the epithelial cells compared to the fibroblasts. Due to increased S1P receptor expression levels, retinal pigmented epithelial cells are likely more sensitive to S1P at low concentrations. In contrast, at high S1P levels the receptors become […] or possibly even internalized leading to decreased stimulation by S1P.
Collagen is one of the primary structural proteins that supports all tissues in the body and is one of the main components of scar tissue. In the non-pathological setting, total collagen content within tissue is maintained via a balance between collagen production by fibroblasts and degradation by certain enzymes. […]

Assay [10] deals with HUVECs. Nature of the assay: HUVEC Matrigel chemoinvasion (migration) assay. Format: cell-based, human. As to conditions: 0.1-1 μM S1P. How it is done: FIG. 5 has two panels, A and B. In panel A, S1P is shown to promote neovascularization through induction of HUVECs tube formation and migration, which is reduced by SPHINGOMAB. […] The number of cells that migrated to the Matrigel membrane were counted in five independent fields.
Experiments were performed as described by Visentin et al. (Cancer Cell 2006 March; 9(3):225-38).

The test system of assay [11] is exudative AMD. As to conditions: 2 year MARINA trial and 1 year ANCHOR trial; cited from earlier work.

Regarding `O=c1[nH]cc(F)c(=O)[nH]1` [5-FU, 5-fluorouracil], in [1], the “% Reduction compared to Vehicle-Treated Mice” value (shortened to “% Reduction”) is 28% and the “Final Tumor Weights” value was found to be 1963.71 mg.
Turning to `CCCCCCCCc1ccc(CCC(N)(CO)CO)cc1.Cl` [FTY720, 2-amino-2-(2-[4-octylphenyl]ethyl)-1,3-propanediol hydrochloride], the “paralysis in EAE” value in assay [2] is “almost completely prevents paralysis”. Besides, the “reduction of peripheral lymphocyte counts” value in assay [3] is on record as 30-70%.
For `CC(C)C[C@H](NC(=O)[C@H](Cc1ccccc1)NC(=O)c1cnccn1)B(O)O` [Bortezomib, reference compound], in assay [4], the “% Reduction” value was 20% and the “Final Tumor Weights” value turned out to be 1664 mg.
In the case of `CC(=O)O[C@H]1C(=O)[C@@]2(C)[C@H]([C@H](OC(=O)c3ccccc3)[C@]3(O)C[C@H](OC(=O)[C@H](O)[C@@H](NC(=O)c4ccccc4)c4ccccc4)C(C)=C1C3(C)C)[C@]1(OC(C)=O)CO[C@@H]1C[C@@H]2O` [Paclitaxel], in [5], the “% Reduction” value is 80% and the “Final Tumor Weights” value is 539 mg. In assay [6], the “% Reduction” value was determined as 100% and the “Final Tumor Weights” value amounted to 0 mg.
With `CCCCCCCCCCCCC/C=C/[C@@H](O)[C@@H](N)COP(=O)(O)O` [S1P, sphingosine-1-phosphate], in assay [7], the “S1P concentration at which a significant increase in α-SMA expression was observed” value is 0.001 µM and the “production of α-Smooth muscle actin (α-SMA)” value is reported as “stimulates production”. Also, in assay [8], the “increase of EC infiltration in comparison to Matrigel only plugs” value is given as 3 fold. Further, in [9], the PAI-1 expression entry was “stimulates the PAI-1 expression in a dose-dependent manner”, the “S1P concentration at which a significant increase in α-SMA expression was observed” value turned out to be 10 µM and the “production of α-Smooth muscle actin (α-SMA)” value is reported as “stimulates production”. Besides, the “stimulation of HUVEC migration over non-treated HUVECs” value in assay [10] is reported as 2-2.5 fold.
Consider “Avastin: anti-angiogenic drug, bevacizumab (Avastin, Genentech)”, for which the “% Reduction” value in assay [1] is 30%; in [5] it was 80% and 79%; in assay [6] it was 35%. Further, the “Final Tumor Weights” value is reported as 1927.44 mg in assay [1], 578 mg in assay [5] and 1967.90 mg in assay [6].

B1: RANIBIZUMAB: antibody fragment inhibiting all isoforms of VEGF-A (antibody, chains of the INN, looked up, V domains shown)
VH: EVQLVESGGGLVQPGGSLRLSCAASGYDFTHYGMNWVRQAPGKGLEWVGWINTYTGEPTYAADFKRRFTFSLDTSKSTAYLQMNSLRAEDTAVYYCAKYPYYYGTSHWYFDVWGQGTLVTVSS
VL: DIQLTQSPSSLSASVGDRVTITCSASQDISNYLNWYQQKPGKAPKVLIYFTSSLHSGVPSRFSGSGSGTDFTLTISSLQPEDFATYYCQQYSTVPWTFGQGTKVEIK
modifications: Fab
In the case of B1, the “patients achieving some visual gain” value in assay [11] is “approximately 40%”.
